Results published in paper PMC9239059, “Structure-Guided Synthesis of FK506 and FK520 Analogs with Increased Selectivity Exhibit In Vivo Therapeutic Efficacy against Cryptococcus” (mBio, 2022).
Converted amounts (≈) assume the structure as drawn.

Columns and labels:
Scedosporium apiospermum = assay: microbe, parasite or virus in culture; design: species or system Aspergillus fumigatus and other molds; modified CLSI M38-A2 broth microdilution in RPMI 1640, mold growth inhibition (MIC/MEC); conditions: Scedosporium apiospermum; MIC/MEC
Protocol: (§1) In vitro antifungal activities of FK506, FK520, and analogs were assessed in RPMI 1640 (Sigma-Aldrich) for all strains tested. MICs/minimum effective concentrations (MECs) for each drug were measured using modified Clinical and Laboratory Standards Institute (CLSI) M38-A2 and M27-A3 standard in vitro antifungal susceptibility protocols. Broth microdilution assays for MIC/MEC assessment were performed as described previously ([33]). All antifungal assays with C. neoformans were performed at 37°C. Antifungal susceptibility testing for C. albicans was performed in the presence of a uniform 1 μg/mL concentration of fluconazole to sensitize the organism to calcineurin inhibition. MICs/minimum effective concentrations (MECs) were determined for each of the novel analogs against the three major human fungal pathogens, A. fumigatus, C. neoformans, and C. albicans. […] Thus, analogs of FK506 and FK520 can tolerate up to 100-fold reduction in antifungal activity and still be considered for in vivo testing. For C. neoformans, MICs were the most uniform and ranged from 0.2 to 2 μg/mL, which is between 4- and 40-fold reduced for antifungal activity. C. albicans MICs ranged from 0.2 to 6.25 μg/mL, which is between 10- and 312.5-fold reduced for activity. Despite being one of the most difficult to treat fungal infections, all six analogs were active against A. fumigatus with MECs ranging from 1 to 2 μg/mL or a 62.5- to 125-fold reduction in activity. Two FK520 analogs, JH-FK-05 and JH-FK-07, maintained high levels of broad-spectrum antifungal activity across the three species, and JH-FK-07 had the lowest MICs for both C. neoformans and C. albicans. To assess the antifungal activity against other human fungal pathogens, we selected JH-FK-05 to test against a panel of pathogenic molds and drug-resistant A. fumigatus strains (Table S3). JH-FK-05 registered MECs as low as 1 μg/mL for some of these highly recalcitrant species, such as Mucor circinelloides, Rhizopus oryzae, and pan azole-resistant A. fumigatus (strain F14946).

Aspergillus flavus = assay: microbe, parasite or virus in culture; design: species or system Aspergillus fumigatus and other molds; modified CLSI M38-A2 broth microdilution in RPMI 1640, mold growth inhibition (MIC/MEC); conditions: Aspergillus flavus; MIC/MEC
Protocol: as §1

Rhizopus oryzae = assay: microbe, parasite or virus in culture; design: species or system Aspergillus fumigatus and other molds; modified CLSI M38-A2 broth microdilution in RPMI 1640, mold growth inhibition (MIC/MEC); conditions: Rhizopus arrhizus; MIC/MEC
Protocol: as §1

[1] = test system: T1, Aspergillus fumigatus F7075; assay: microbe, parasite or virus in culture; design: species or system Aspergillus fumigatus and other molds; modified CLSI M38-A2 broth microdilution in RPMI 1640, mold growth inhibition (MIC/MEC); conditions: F7075, MIC/MEC, azole-resistant strain
T1 construct: F7075
Protocol: as §1

Aspergillus niger = assay: microbe, parasite or virus in culture; design: species or system Aspergillus fumigatus and other molds; modified CLSI M38-A2 broth microdilution in RPMI 1640, mold growth inhibition (MIC/MEC); conditions: Aspergillus niger; MIC/MEC
Protocol: as §1

[2] = test system: T2, Aspergillus fumigatus (Wild-type) (akuBKu80); assay: microbe, parasite or virus in culture; design: species or system Aspergillus fumigatus and other molds; modified CLSI M38-A2 broth microdilution in RPMI 1640, mold growth inhibition (MIC/MEC); conditions: MIC/MEC
T2 construct: akuBKu80
Protocol: as §1

[3] = test system: T3, Aspergillus fumigatus F14946; assay: microbe, parasite or virus in culture; design: species or system Aspergillus fumigatus and other molds; modified CLSI M38-A2 broth microdilution in RPMI 1640, mold growth inhibition (MIC/MEC); conditions: F14946, MIC/MEC, azole-resistant strain
T3 construct: F14946
Protocol: as §1

Aspergillus terreus = assay: microbe, parasite or virus in culture; design: species or system Aspergillus fumigatus and other molds; modified CLSI M38-A2 broth microdilution in RPMI 1640, mold growth inhibition (MIC/MEC); conditions: Aspergillus terreus; MIC/MEC
Protocol: as §1

FKBP12 = target: T4, FKBP12 (Candida albicans, UniProt C4YFI3+C4YS24+P28870); assay: BLI, compound-mediated ternary complex formation, […] compound; type: binding
T4 construct: gene RBP1; biotinylated (Avi-tagged) FKBP12; with CnA-CnB-calmodulin
T4 sequence (P28870 whole entry): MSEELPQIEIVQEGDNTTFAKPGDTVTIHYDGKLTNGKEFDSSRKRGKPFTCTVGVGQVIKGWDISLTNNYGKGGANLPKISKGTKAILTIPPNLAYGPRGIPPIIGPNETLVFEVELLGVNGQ
T4 sequence (C4YFI3 54-445): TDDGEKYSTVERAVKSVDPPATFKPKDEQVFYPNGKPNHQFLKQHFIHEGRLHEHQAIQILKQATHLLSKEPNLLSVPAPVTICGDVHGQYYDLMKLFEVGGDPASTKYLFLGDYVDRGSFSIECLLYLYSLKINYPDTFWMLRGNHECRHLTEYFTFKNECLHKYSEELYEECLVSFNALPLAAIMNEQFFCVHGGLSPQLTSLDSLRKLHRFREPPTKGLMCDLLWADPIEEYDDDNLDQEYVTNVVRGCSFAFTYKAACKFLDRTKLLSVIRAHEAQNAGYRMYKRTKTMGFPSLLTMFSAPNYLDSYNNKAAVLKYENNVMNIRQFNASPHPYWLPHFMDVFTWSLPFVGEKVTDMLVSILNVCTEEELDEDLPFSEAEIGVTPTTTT
T4 sequence (C4YS24 1-173): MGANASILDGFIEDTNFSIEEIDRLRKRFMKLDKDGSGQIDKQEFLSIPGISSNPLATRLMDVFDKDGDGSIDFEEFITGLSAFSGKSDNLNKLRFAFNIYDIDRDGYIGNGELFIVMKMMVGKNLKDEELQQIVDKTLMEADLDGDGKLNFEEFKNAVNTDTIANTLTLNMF
T4 sequence (P23286 whole entry partner): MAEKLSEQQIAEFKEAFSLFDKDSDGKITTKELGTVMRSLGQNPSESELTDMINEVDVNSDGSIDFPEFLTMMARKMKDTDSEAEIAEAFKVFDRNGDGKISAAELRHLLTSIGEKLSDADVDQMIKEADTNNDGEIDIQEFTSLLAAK

Structure (SMILES): CC[C@@H]1/C=C(\C)C[C@H](C)C[C@H](OC)[C@H]2O[C@@](O)(C(=O)C(=O)N3CCCC[C@H]3C(=O)O[C@H](/C(C)=C/[C@@H]3CC[C@@H](O)[C@H](OC)C3)[C@H](C)[C@@H](O)C/C1=N/NC(C)=O)[C@H](C)C[C@@H]2OC [JH-FK-05]
- MIC (Scedosporium apiospermum): > 8 µg/mL
- MIC (Aspergillus flavus): 1 µg/mL (≈ 1.18 µM)
- MIC (Rhizopus oryzae): 1 µg/mL (≈ 1.18 µM)
- MIC [1]: 2 µg/mL (≈ 2.36 µM)
- MIC (Aspergillus niger): < 1 µg/mL
- MIC [2]: 1 µg/mL (≈ 1.18 µM)
- MIC [3]: 1 µg/mL (≈ 1.18 µM)
- MIC (Aspergillus terreus): 1 µg/mL (≈ 1.18 µM)
- BLI, compound-mediated ternary complex formation, 10 μM compound (FKBP12): target complexes form in the presence of the analogs with affinities similar to those of the parent compounds
